The text below walks through data of US20060034925A1, “Tumor targeting drug-loaded particles” (priority 2004, published 2006).

Molecules are shown by their SMILES.

Data set [1] is described as follows: retention of PLGA microparticles in peritoneal cavity. As to conditions: intraperitoneal administration; at 24 hours. It counts as in vivo, mice. The source says:
Localization and disposition of PLGA microparticles within the peritoneal cavity after intraperitoneal administration was studied using rhodamine-loaded fluorescence microparticles. The disposition was compared with that of rhodamine in solution.

Data set [2] has as its system Human RT4 bladder transitional bladder cancer cells. The experiment in a line: cytotoxicity in RT4 cells, sulforhodamine B assay. It counts as cell-based.
For data set [3], the system named is multiple human tumor cells. As to conditions: treatment for 3 hours; cited from earlier work.
In another data set the test system is Hs766T. Kind of data set: cytotoxicity of paclitaxel, MTT assay. It counts as cell-based. As to conditions: Homo sapiens, read-out: concentration required to produce 50% cytotoxicity (IC50), 96 hour treatment, dissolved in water. The method, then:
(§1) Drug effect was measured using the microtetrazolium dye reduction (MTT) assay.
In general terms: Tetrazolium dyes change colour on reduction, which living cells bring about.

Another data set has as its system PANC1. Kind of data set: cytotoxicity of paclitaxel, MTT assay. As to conditions: Homo sapiens, PANC-1, read-out: concentration required to produce 50% cytotoxicity (IC50), 96 hour treatment, dissolved in water. It counts as cell-based. The procedure:
as §1

A further data set concerns MIA-PaCa. Kind of data set: cytotoxicity of paclitaxel, MTT assay. Type of data set: cell-based. Particulars: Homo sapiens, MIA PaCa-2, read-out: concentration required to produce 50% cytotoxicity (IC50), 96 hour treatment, dissolved in water. The procedure: as §1
In a further data set the test system is peritoneal cancer. Particulars: intraperitoneal administration in patients; cited from earlier work.

As for `CCN(CC)c1ccc2c(-c3ccccc3C(=O)O)c3ccc(=[N+](CC)CC)cc-3oc2c1` [rhodamine in solution, rhodamine], the “localization in the peritoneal cavity (fluorescence)” value in data set [1] is given as “could no longer be observed in the peritoneal cavity”.
As to `CC(=O)O[C@H]1C(=O)[C@@]2(C)[C@H]([C@H](OC(=O)c3ccccc3)[C@]3(O)C[C@H](OC(=O)[C@H](O)[C@@H](NC(=O)c4ccccc4)c4ccccc4)C(C)=C1C3(C)C)[C@]1(OC(C)=O)CO[C@@H]1C[C@@H]2O` [paclitaxel], the IC50 in data set [2] (RT-4, 48 h, RT4, 48 hour treatment, immediate effect) came out at 11 ± 0.4 nM; in data set [2] (RT-4, 96 h, RT4, 96 hour treatment, immediate effect) it was 4 ± 0.4 nM; in data set [2] (RT-4, RT4, 15 minute treatment, delayed effect measured at 96 hours), 157 ± 6.6 nM; in data set [2] (RT-4, RT4, 2 hour treatment, delayed effect measured at 96 hours), 33 ± 4.8 nM; in the data set on Hs766T, 0.7 nM; in the data set with PANC1, 1.5 nM. The IC50 in the data set on MIA-PaCa stood at 0.7 nM. Also, the “concentration sufficient to induce apoptosis” value in data set [3] is recorded as 200 nM.
On to `N.N.[Cl][Pt][Cl]` [cisplatin], for which the “extension of survival time” value in the data set on peritoneal cancer is given as “about 20%”.
